Several values for one entry are separate records, joined by “and”; a condition that tells them apart may be missing. Equal entries are not always repeated.
What was measured:
[1] = test system: carrageenan-induced rat paw edema; assay: carrageenan-induced rat paw edema test; format: in vivo; parameters: Mean increase in edema weight ± SEM: unit not given here; settings: rats, 10 mg/kg intraperitoneally, 4 h after carrageenan; for inhibition in vivo at 10 mg/kg / change in vivo at 10 mg/kg: Rattus norvegicus, ip; for inhibition in vivo at 10 mg/kg: 4 h, read-out: %Inhibition of Paw edema from control group (edema reduction); for change in vivo at 10 mg/kg / Mean increase in edema weight ± SEM: N = 6; for change in vivo at 10 mg/kg: read-out: Mean % increase in edema weight ± SEM; for % Activity relative to indomethacine: indomethacin = 100
Protocol: The in vivo anti-inflammatory effects of the newly synthesized pyrazolopyrimidine derivatives were assessed by utilizing the functional model of carrageenan-induced rat paw edema using indomethacin as the reference drug. Mean changes and the percent increase in paw edema weight of animals pretreated with the tested compounds after 4 h from the induction of inflammation were measured, together with the percent inhibition of induced rat paw edema by the tested compounds. The anti-inflammatory activity (relative potency) of the tested compounds relative to that of indomethacin was also calculated (Table 1) (Fig. 2).
The in vivo carrageenan-induced rat paw edema model of inflammation was used to evaluate the anti-inflammatory properties of the newly synthesized compounds according to the previously reported Winter et al. method.
Adult male albino rats weighing 100–120 g (obtained from the animal house of the department of Physiology, Faculty of Medicine, Alexandria University) were used throughout the work. Animals were randomly divided into groups of six rats each. They were kept in an animal house under standard conditions of light and temperature with free access to food and water ad libitum and allowed to be accustomed to their environment for two days before testing.
Indomethacin, used as a reference standard (Khahira for Pharmaceutical and Chemical Industry, Cairo, Egypt), and the test compounds were dissolved in DMSO and were injected intraperitoneally at a dose level of 10 mg/kg body weight. Control animals, on the other hand, were intraperitoneally injected with appropriate volume of DMSO only. After one hour of the above treatment, an inflammatory edema in the right hind paw of all animals was induced by subcutaneous injection of 0.05 ml of freshly prepared solution of 1% carrageenan (λ-Carrageenan Sigma–Aldrich Corp. St. Louis, MO, USA) in sterile normal saline (0.9%), into the subplantar tissue of the paw. An equal volume of saline was injected to the left hind paw and served as internal control for the degree of inflammation in the right hind paw.
Four hours after carrageenan injection, animals were decapitated and both the right and left hind paws were excised at a standard point and weighed. The difference in weight from edema between right and left paws was taken as a measure of the degree of inflammation for each animal. The mean increase in weight of the carrageenan-injected paw over the other paw in each group was measured and the percent increase of edema was calculated. The anti-inflammatory efficacy of the tested compounds was assessed by comparing the change in paw weight in the treated animals with that in control animals (treated with DMSO only) and expressed as a percent inhibition of the edema (percent protection against inflammation), calculated according to the following equation: % Inhibition of edema=(1-Wt/Wc)×100 where Wt is the mean increase in paw weight in rats treated with the test compounds and Wc is the mean increase in paw weight in the control group. The anti-inflammatory activity of the test compounds relative to that of indomethacin was also determined (Table 2).
In the anti-inflammatory study, data obtained were expressed as the mean ± standard error (SEM). Statistical significance was determined by comparing the values of the test compounds and the standard with those obtained from the control group of animals using One-way ANOVA with Dunnett’s post-test using the GraphPad Prism version 3.00 for Windows (GraphPad Software, San Diego California USA, www.graphpad.com). The difference in results was considered significant if P < 0.001.

[2] = test system: gastric mucosa of rats; assay: gastric ulcerogenic effect (Meshali's method, ulcer index by Robert's method); format: in vivo, rat; parameters: key to Ulcer index: ulcer index = %incidence/10 + avg no. of ulcers + avg severity (0–4); settings: for % ulceration in the population of test animals: oral 10 mg/kg; for Average No. of ulcer / % Incidence/10 / % Ulcerogenicity relative to indomethacin / Average severity / Ulcer index: oral 10 mg/kg on three days; for % Incidence/10: 5 animals per group; for % Ulcerogenicity relative to indomethacin: indomethacin = 100, 10 mg/kg; for Average severity: score 0 to 4; for Ulcer index: sum of the 3 figures
Protocol: The ulcer index was calculated according to Robert’s method.
Adult male albino rats weighing between 100 and 120 g were used. Animals were divided into groups of five animals each. Rats were fasted 20 h before drug administration. Water was given ad libitum. The control group received the vehicle (1% gum acacia) orally. Other groups received indomethacin or test compounds orally in a dose of 10 mg/kg body weight suspended in 1% gum acacia. Rats were fasted for 2 h, allowed to feed for 2 h, then fasted for another 20 h. Rats were given another two doses on the second and third days. On the fourth day, rats were sacrificed by diethyl ether; the stomach of each rat was removed, opened along the greater curvature, and rinsed with cold 0.9% saline. The stomach was stretched, by pins, on a corkboard and inspected with a 3x magnifying lens for any evidence of mucosal damage. The ulcer index was calculated according to Robert’s method. The number of mucosal damage (red spots) was counted and their severity (ulcerogenic severity) was graded from 0 to 4 according to the following score assignment:
The following figures were calculated: • –– % Incidence/10 = [number of rats showing ulcer of any grade divided by total number of rats in the group × 100]/10. • –– Average number of ulcers: number of ulcers in the group/total number of rats in the group. • –– Average severity: Σ [each ulcer multiplied by its score of severity]/number of ulcers in the group. • Ulcer index = the sum of the 3 figures. • Results are tabulated in Table 2.

[3] = target: cyclooxygenase-2; parameters: method as in PMID 15044055; settings: intact cell assays; cited from earlier work
[4] = target: cyclooxygenase-1; parameters: method as in PMID 15044055; settings: intact cell assays; cited from earlier work

melting point	SMILES	inhibition in vivo at 10 mg/kg [1]	change in vivo at 10 mg/kg [1]	Mean increase in edema weight ± SEM [1]	% Activity relative to indomethacine [1]	% ulceration in the population of test animals [2]	Average No. of ulcer [2]	% Incidence/10 [2]	% Ulcerogenicity relative to indomethacin [2]	Average severity [2]	Ulcer index [2]	IC50 [3]	IC50 [4]
258 to 259 °C	Cc1nc2c(cnn2-c2ccccc2)c(=O)n1N=c1scc(-c2ccc(Cl)cc2)n1-c1ccccc1 [Compound 11c, 5-{[4-(4-Chlorophenyl)-3-phenyl-1,3-thiazol-2(3H)-ylidene]amino}-6-methyl-1-phenyl-1,5-dihydro-4H-pyrazolo[3,4-d]pyrimidin-4-one]	54.1%	10.8 ± 0.457%	0.72 ± 0.031	79.44%	40–60%	1.6	6	53.47%	1.63	9.23	–	–
267 to 269 °C	Cc1nc2c(cnn2-c2ccccc2)c(=O)n1N=c1scc(-c2ccccc2)n1-c1ccc(Cl)cc1 [Compound 11d, 5-{[3-(4-Chlorophenyl)-4-phenyl-1,3-thiazol-2(3H)-ylidene]amino}-6-methyl-1-phenyl-1,5-dihydro-4H-pyrazolo[3,4-d]pyrimidin-4-one]	56.7%	8.73 ± 0.868%	0.68 ± 0.065	83.18%	80%	1.0	8	59.09%	1.20	10.20	–	–
261 to 263 °C	Cc1nc2c(cnn2-c2ccccc2)c(=O)n1N=c1scc(-c2ccc(Br)cc2)n1-c1ccc(Cl)cc1 [Compound 11e, 5-{[4-(4-Bromophenyl)-3-(4-chlorophenyl)-1,3-thiazol-2(3H)-ylidene]amino}-6-methyl-1-phenyl-1,5-dihydro-4H-pyrazolo[3,4-d]pyrimidin-4-one]	66.9%	8.74 ± 0.929%	0.52 ± 0.031	98.14%	20%	0.8	2	26% and 26.36%	1.75	4.55	–	–
272 to 275 °C	Cc1nc2c(cnn2-c2ccccc2)c(=O)n1N=c1scc(-c2ccc(Cl)cc2)n1-c1ccc(Cl)cc1 [Compound 11f, 5-{[3,4-Bis(4-chlorophenyl)-1,3-thiazol-2(3H)-ylidene]amino}-6-methyl-1-phenyl-1,5-dihydro-4H-pyrazolo[3,4-d]pyrimidin-4-one]	65%	9.29 ± 0.961%	0.55 ± 0.043	95.33%	40–60%	1.6	4	41.13%	1.5	7.10	–	–
142 to 145 °C	O=c1c2cnn(-c3ccccc3)c2nc2cc3c(nn12)CCCC3 [Compound 17, 1-Phenyl-7,8,9,10-tetrahydropyrazolo[3′,4′:4,5]pyrimido[1,2-b]cinnolin-4(1H)-one]	29.9%	15.8 ± 0.756%	1.10 ± 0.052	43.93%	–	–	–	–	–	–	–	–

The next lines start with the compound.

SMILES	melting point	inhibition in vivo at 10 mg/kg [1]	change in vivo at 10 mg/kg [1]	Mean increase in edema weight ± SEM [1]	% Activity relative to indomethacine [1]	% ulceration in the population of test animals [2]	Average No. of ulcer [2]	% Incidence/10 [2]	% Ulcerogenicity relative to indomethacin [2]	Average severity [2]	Ulcer index [2]	IC50 [3]	IC50 [4]
Cc1nc2c(cnn2-c2ccccc2)c(=O)n1N=C1SCC(=O)N1c1ccc(Cl)cc1 [Compound 10b, 5-{[3-(4-Chlorophenyl)-4-oxo-1,3-thiazolidin-2-ylidene]amino}-6-methyl-1-phenyl-1,5-dihydro-4H-pyrazolo[3,4-d]pyrimidin-4-one]	264 to 267 °C	58.6%	8.31 ± 0.43%	0.65 ± 0.022	85.99%	40–60%	0.8	6	46.63%	1.25	8.05	–	–
Cc1nc2c(cnn2-c2ccccc2)c(=O)n1N=c1scc(-c2ccccc2)n1-c1ccccc1 [Compound 11a, 5-[(3,4-Diphenyl-1,3-thiazol-2(3H)-ylidene)amino]-6-methyl-1-phenyl-1,5-dihydro-4H-pyrazolo[3,4-d]pyrimidin-4-one]	258 to 260 °C	53.5%	10.5 ± 0.468%	0.73 ± 0.021	78.50%	40–60%	1.6	6	52.02%	1.38	8.98	–	–
Cc1nc2c(cnn2-c2ccccc2)c(=O)n1N=c1scc(-c2ccc(Br)cc2)n1-c1ccccc1 [Compound 11b, 5-{[4-(4-Bromophenyl)-3-phenyl-1,3-thiazol-2(3H)-ylidene]amino}-6-methyl-1-phenyl-1,5-dihydro-4H-pyrazolo[3,4-d]pyrimidin-4-one]	248 to 252 °C	57.3%	8.42 ± 0.482%	0.67 ± 0.049	84.11%	80%	1.2	8	–	1.33	10.53	–	–
CN(C)c1nc(NCc2ccccc2)c2cnn(C(C)(C)C)c2n1 [II]	–	–	–	–	–	–	–	–	–	–	–	0.0009 µM	0.0596 µM

Reference: publication PMC3700072, “Synthesis, Anti-Inflammatory, and Ulcerogenicity Studies of Novel Substituted and Fused Pyrazolo[3,4-d]pyrimidin-4-ones” (Scientia Pharmaceutica, 2013)
